According to patent US20110124006A1, “METHOD FOR SCREENING OF THERAPEUTIC AGENT FOR CANCER” (Hismitsu Pharmaceutical Co., Inc., priority 2008, published 2011):

How the values were obtained:
[1] = tested on: phosphorylation of EGFR and ERK; assay: Western blotting of EGFR and ERK phosphorylation in MCF-7 cells forced to express NLRR1; type: cell-based; details: MCF-7 cells forced to express NLRR1, 10 mM cyclodextrin 30 minutes 37° C., then EGF three minutes
Experimental: The effect of NLRR1 on EGF signal transduction in cells treated with cyclodextrin (methyl-β-cyclodextrin, mβCD) that inhibits lipid raft was examined. FIG. 39 is a photograph showing a result of an immunoblot. […] The cells were washed with the medium, and cultured for three minutes in a medium containing EGF with different concentrations. Then, the phosphorylation of EGFR and ERK was analyzed by Western blotting. With the expression of NLRR1, the enhancement of phosphorylation of EGFR and ERK by EGF was detected. […] From the result, it has been clarified that the enhancement of an EGF signal by NLRR1 needs the structure of lipid raft. Thus, it is thought that treatment of cancer using the combination of an antibody inhibiting NLRR1 and an inhibitor of lipid raft is effective.

SK-N-BE cells [2] = assay: MTT assay, proliferation of SK-N-BE cells in the presence of EGF; type: cell-based; details: 10 ng/ml EGF plus 5 μM inhibitor, vs EGF-only control, T-test p<0.01
Experimental: SK-N-BE cells were cultured in the presence of 10 ng/ml EGF (control, which corresponds to “mock” in FIG. 26), in the presence of 10 ng/ml EGF and 5 μM of EGFR inhibitor AG1478, as well as in the presence of 10 ng/ml EGF and 5 μM of Ras inhibitor FTI277, and the cell proliferation was quantified by the MTT assay over time. FIG. 26 is a graph showing the proliferation of cells.

MYCN expression [3] = assay: Immunoblot of EGF-induced MYCN expression in SK-N-BE cells with pathway inhibitors; type: cell-based; details: six hours, 10 ng/ml EGF, inhibitor concentrations shown in FIG. 27
Experimental: SK-N-BE cells were cultured for six hours in the presence of 10 ng/ml EGF and in the presence of an EGFR inhibitor AG1478, a Ras inhibitor FTI277, an ERK1/2 inhibitor U0126, a PI3Kinase inhibitor LY294002, a INK inhibitor SP600125 or a p38MAPK inhibitor SB203580 in each concentration shown in FIG. 27. Next, respective cells were collected, and the expression of MYCN was analyzed by an immunoblot method using an anti-MYCN antibody and an anti-actin antibody. FIG. 27 is a photograph showing a result of an immunoblot.

MYCN protein expression = assay: Immunoblot of MYCN protein induced by NLRR1 expression in SK-N-BE cells; type: cell-based; details: NLRR1 plasmid 1000 ng/ml, 12 hours, 1 μM AG1478 or 2 μM U0126
Experimental: An expression plasmid of NLRR1 tagged with a myc tag was introduced into SK-N-BE cells at the concentration of 1000 ng/ml. The cells were cultured for 12 hours in the presence of 1 μM of EGFR inhibitor AG1478 or 2 μM of ERK1/2 inhibitor U0126, and then the cells were collected and subjected to an immunoblot method using an anti-myc antibody, an anti-MYCN antibody and an anti-actin antibody. FIG. 34 is a photograph showing a result of an immunoblot.

SK-N-BE cells [4] = assay: MTT assay, proliferation of SK-N-BE cells after siRNA introduction; type: cell-based; details: vs negative control siRNA, day 4 and day 5 p<0.01
Experimental: (§1) To SK-N-BE cells derived from neuroblastoma, siRNA against NLRR1 was introduced so as to suppress the expression of NLRR1. As the siRNA, RNA fragment of the base sequences shown SEQ ID NOs: 3 and 4 were annealed and used.
(§2) After siRNA was introduced, the cells were cultured, and the cell proliferation was quantified by the MTT assay over time. As a control, cells into which Silencer (registered trademark) Negative Control #1 siRNA (Ambion) was introduced were used. FIG. 11 is a graph showing the proliferation of cells. […] FIG. 12 is a photograph of an immunoblot in which the expression of NLRR1 in the cells into which siRNA against NLRR1 was introduced and the control cells were detected by using an anti-NLRR1 rabbit polyclonal antibody. The anti-NLRR1 rabbit polyclonal antibody was prepared by immunizing a rabbit with a synthetic peptide corresponding to 693-712 residues of an amino acid sequence of NLRR1 (SEQ ID NO: 2) as an antigen. The result when an anti-actin antibody was used as the loading control is also shown.

NLRR1 = assay: Immunoblot of NLRR1 expression after siRNA introduction; type: cell-based; details: SK-N-BE cells, anti-NLRR1 rabbit polyclonal antibody
Experimental: as §1, §2

SHEP21N cells = assay: MTT assay, proliferation of SHEP21N cells forced to express MYCN; type: cell-based; details: absence of tetracycline (expression of MYCN increased)
Source text: To SHEP21N cells that were forced to express MYCN in the absence of tetracycline, siRNA against NLRR1 was introduced, and the cell proliferation was quantified by the MTT assay over time. FIG. 15 is a graph showing the proliferation of cells. In the absence of tetracycline (expression of MYCN was increased), the proliferation of cells was promoted as compared with the case in the presence of tetracycline (expression of MYCN was suppressed). When Silencer (registered trademark) Negative Control #1 siRNA was introduced in the absence of tetracycline (expression of MYCN was increased) as a control, the proliferation rate of cells was not changed.

MYCN expression [5] = assay: Immunoblot of EGF-induced MYCN expression in SK-N-BE cells after siRNA introduction; type: cell-based; details: 10 hours, 10 ng/ml EGF
Experimental: SK-N-BE cells, SK-N-BE cells into which siRNA against NLRR1 was introduced, and SK-N-BE cells into which Silencer (registered trademark) Negative Control #1 siRNA was introduced were cultured for 10 hours in the presence of 10 ng/ml EGF, and the cells were collected. Next, these cells were subjected to an immunoblot method using an anti-MYCN antibody, an anti-NLRR1 rabbit polyclonal antibody and an anti-actin antibody, and expression of MYCN and NLRR1 in the protein level was detected. FIG. 16 is a photograph showing a result of immunoblot. The result of the cells into which control siRNA was introduced corresponds to “mock” in FIG. 16.

[6] = tested on: SK-N-AS cell line continuously expressing NLRR1; assay: Flow cytometry of sub-G1 cells (apoptosis) under serum-free conditions; type: cell-based; details: SK-N-AS line continuously expressing NLRR1, serum-free 36 hours, PI staining
Source text: It is known that in the SK-N-AS neuroblastoma cell line, cell death is induced when serum is removed, and that the number of sub-G1 cells is increased from the flow cytometry analysis. SK-N-AS cells into which an empty vector plasmid was introduced (corresponding to “mock” on the left in FIG. 17), a cell line continuously expressing NLRR1 obtained by introducing a plasmid encoding NLRR1 into SK-N-AS cells (corresponding to “+NLRR1” in the middle of FIG. 17), and cells obtained by introducing siRNA against NLRR1 into this cell line continuously expressing NLRR1 (corresponding to “+siRNA+NLRR1” on the right of FIG. 17) were PI stained before and after the cells were cultured under the serum-free conditions for 36 hours, and analyzed by flow cytometry. The rate of the sub-G1 cells was evaluated as a rate of apoptosis. […] FIG. 18 is a graph showing the proportion of the number of sub-G1 cells to the total number of cells before and after culturing under the serum free conditions of respective cells based on the results of FIG. 17, in which the unit of the ordinate axis is %.

[7] = tested on: SK-N-BE cells, NLF cells, SH-SY5Y cells, SMS-SAN cells; assay: MTT assay, EGF-induced proliferation of neuroblastoma-derived cells; type: cell-based; details: SK-N-BE cells with siRNA, 10 ng/ml EGF
Experimental: SK-N-BE cells, NLF cells, SH-SY5Y cells, SMS-SAN cells, which are cell lines derived from neuroblastoma, and SK-N-BE cells into which siRNA against NLRR1 was introduced were cultured in the presence and absence of 10 ng/ml EGF, and the cell proliferation was quantified by the MTT assay over time. FIG. 28 is a graph showing the cell proliferation, showing the change fold ratio of the proliferation of cells in the presence of EGF to the proliferation of cells in the absence of EGF.

[8] = tested on: SK-N-BE cells forced to express NLRR1; details: SK-N-BE cells forced to express NLRR1, presence vs absence of U0126, over time
Experimental: SK-N-BE cells that were forced to express NLRR1 were cultured in the presence and absence of ERK1/2 (ERK1 and ERK2) inhibitor, U0126. Furthermore, as a control, SK-N-BE cells into which a plasmid encoding NLRR1 was not introduced were cultured in the absence of U0126. The proliferation of these cells was quantified by an MTT assay over time. FIG. 23 is a graph showing a proliferation of cells. In the drawing, A denotes the proliferation of SK-N-BE cells forced to express NLRR1; B denotes the proliferation of SK-N-BE cells forced to express NLRR1 in the presence of U0126; and C denotes the proliferation of control cells.

| Molecule | proliferation of cells (MTT assay) (SK-N-BE cells [2]) | expression increase of MYCN by the induction of EGF (immunoblot) (MYCN expression [3]) | expression induction of MYCN protein by the expression of NLRR1 (immunoblot) (MYCN protein expression) | also measured |
| --- | --- | --- | --- | --- |
| methyl-β-cyclodextrin [mβCD] |  |  |  | enhancement of phosphorylation of EGFR and ERK by NLRR1 [1]: the enhancement of phosphorylation of EGFR and ERK by NLRR1 was not observed |
| COc1cc2ncnc(Nc3cccc(Cl)c3)c2cc1OC [AG1478] | the proliferation of cells is suppressed | expression increase of MYCN by the induction of EGF was inhibited | expression induction of MYCN protein by the expression of NLRR1 is suppressed |  |
| COC(=O)[C@H](CCSC)NC(=O)c1ccc(NC[C@@H](N)CS)cc1-c1ccccc1 [FTI277] | the proliferation of cells is suppressed | expression increase of MYCN by the induction of EGF was inhibited |  |  |
| C[S+]([O-])c1ccc(-c2nc(-c3ccncc3)c(-c3ccc(F)cc3)[nH]2)cc1 (stereo not shown) [SB203580] |  | expression increase of MYCN by the induction of EGF was not inhibited |  |  |
| siRNA against NLRR1: annealed RNA fragments of SEQ ID NOs: 3 and 4, suppresses the expression of NLRR1 (chain 1 UCUUGGUUGAGCUGUGUAGUU; chain 2 AACUACACAGCUCAACCAAGA; RNA, backbone not given here; listed as Homo sapiens) |  |  |  | proliferation of cells (MTT assay) (SK-N-BE cells [4]): the proliferation of cells is suppressed; expression of NLRR1 (immunoblot) (NLRR1): the expression of NLRR1 was suppressed; proliferation of cells due to increased MYCN expression (MTT assay) (SHEP21N cells): the proliferation of cells due to the increase in the MYCN expression did not occur; induction of the expression of MYCN by EGF treatment (immunoblot) (MYCN expression [5]): the induction of the expression of MYCN by EGF treatment was suppressed; apoptosis (proportion of sub-G1 cells) [6]: the increase in the apoptosis was observed; EGF-induced cell proliferation (MTT assay, fold ratio with vs without EGF) [7]: EGF-induced cell proliferation was remarkably suppressed |
| N#CC(=C(/N)Sc1ccccc1N)/C(C#N)=C(\N)Sc1ccccc1N [U0126] |  | expression increase of MYCN by the induction of EGF was inhibited | expression induction of MYCN protein by the expression of NLRR1 is suppressed | proliferation of cells (MTT assay) [8]: the cell proliferation was suppressed |
